In publication PMC11990670, “Exploring the Volatility, Phase Transitions, and Solubility Properties of Five Halogenated Benzaldehydes” (Molecules, 2025):
≈ marks a conversion by molar mass, not a printed value. Read-outs that look alike come from different tables or passages of the source. Blank lines part the entries; values can stand above or below the compound they belong to.

Legend:
[1] = Gibbs energy of hydration and Henry's law volatility constant calculated from sublimation and solubility data; settings: 25 °C; for Gibbs energy of hydration ΔhydrGm°: calculated by Equation (4); for log10(KHpc/kPa·m^3·mol^−1) Henry's law volatility constant: calculated by Equation (6); for KHpc×10^3 Henry's law volatility constant: value is KHpc multiplied by 10^3
Procedure: The concentration was measured by absorbances at 260 nm for 4-chlorobenzaldehyde, 263 nm for 4-bromobenzaldehyde and 2,4-dichlorobenzaldehyde, 297 nm for 2,6-dichlorobenzaldehyde, and 306 nm for 2,3-dichlorobenzaldehyde, using a Cary-60 UV–vis (Agilent) spectrophotometer. X-ray diffraction (XRD) and differential scanning calorimetry of residual solids were used to identify the eventual phase transformations. The purified samples of each compound studied were used for all experimental determinations, including the solubility measurements. After reaching the equilibrium, the residual solid was dried and analyzed using both DSC and XRD. The melting properties obtained from DSC were compared with those of the original purified sample, following the same procedure for the XRD analysis. […] As an example, the supporting information includes two thermograms and two XRD patterns for 2,4-dichlorobenzaldehyde (Figures S1 and S2). […] Equation (4) was derived from Equation (5), which is widely applicable to the solubility of solids.(4) ΔhydrGm°/kJ·mol^−1=9.17−5.71·log10(Scr/mol·m^−3)−ΔcrgGm°/kJ·mol^−1 (5) S=p^°/RTexpΔcrgGm°+ΔhydrGm°/−RT
The standard states in Equation (5) are p° = 1 × 10^5 Pa for ΔcrgGm° , c° = 1 mol·L^−1 for ΔhydrGm° and s° = 1 mol·m^−3 for solubility. Using the experimental results of ΔhydrGm° , calculated through Equation (4), the values of Henry’s law volatility constants, KHpc, were determined in the logarithm form by Equation (6), that was adapted from Modarressi et al..

[2] = Thermodynamic properties of sublimation and vaporization from Clarke and Glew fit of vapor pressures
Text: The experimental crystalline and liquid vapor pressures were independently fitted by the Clarke and Glew Equation (1) in its truncated form:(1) Rlnp/p^°=−ΔcdgGm°θ/θ+ΔcdgHm°θ1/θ−1/T+ΔcdgCp,m°θθ/T−1+lnT/θ where R is the molar gas constant, p is the vapor pressure at the temperature T, p° is a selected reference pressure (p° = 10^5 Pa in this work), and θ is a reference temperature. The differences between gaseous and condensed phases of standard molar Gibbs energy, enthalpy, and the isobaric heat capacity are represented, respectively, by ΔcdgGm° , ΔcdgHm° , and ΔcdgCp,m° .
The values of ΔcdgCp,m° are generally achieved only when accurate experimental data measured over ca. 50 K are reachable. […] For comparison reasons, the values of ΔcrgCp,m° were also calculated as ΔcrgCp,m°(θ)=Cp,m°(g)−Cp,m°(cr) , where the terms Cp,m°(g) and Cp,m°(cr) are, respectively, the gas and crystalline isobaric molar heat capacities. […] The crystalline molar heat capacities, Cp,m°(cr) , were determined at different temperatures using differential scanning calorimetry, enabling the fit to second-order polynomials in temperature, represented by Equation (3) and reported in Table 3. […] The values of Cp,m°(cr,298.15 K) were derived from these equations, allowing ΔcrgCp,m°(298.15 K) to be calculated.

[3] = cited from earlier work
[4] = crystalline phase, θ = 298.15 K
[5] = crystalline phase, θ = 298.15 K, p° = 10^5 Pa
[6] = crystalline phase, θ = 307.92 K (mean temperature)
[7] = crystalline phase, θ = 334.82 K (triple point)
[8] = liquid phase including supercooled liquid, θ = 298.15 K
[9] = liquid phase including supercooled liquid, θ = 298.15 K, p° = 10^5 Pa
[10] = liquid phase, θ = 334.82 K (triple point)
[11] = liquid phase, θ = 354.31 K (mean temperature)
[12] = crystalline phase, θ = 313.72 K (mean temperature)
[13] = crystalline phase, θ = 343.90 K (triple point)
[14] = liquid phase, θ = 343.90 K (triple point)
[15] = liquid phase, θ = 350.04 K (mean temperature)
[16] = crystalline phase, θ = 315.46 K (mean temperature)
[17] = crystalline phase, θ = 342.99 K (triple point)
[18] = liquid phase, θ = 342.99 K (triple point)
[19] = liquid phase, θ = 358.95 K (mean temperature)
[20] = crystalline phase, θ = 303.88 K (mean temperature)
[21] = crystalline phase, θ = 330.02 K (triple point)
[22] = liquid phase, θ = 330.02 K (triple point)
[23] = liquid phase, θ = 345.37 K (mean temperature)

- Gibbs energy of hydration ΔhydrGm° [1]: -3.99 kcal/mol
- log10(KHpc/kPa·m^3·mol^−1) Henry's law volatility constant [1]: −2.53
- KHpc×10^3 Henry's law volatility constant [1]: 2.95 kPa·m^3·mol^−1
- triple point pressure ptp ([2]; Ttp = 334.82 K): 87.6 Pa
- p (Equation (1)) vapor pressure [2, 4]: 2.47 Pa
- ΔcdgGm°(θ) standard molar Gibbs energy of sublimation [2, 5]: 6.286 ± 0.0024 kcal/mol
- ΔcdgHm°(θ) standard molar enthalpy of sublimation [2, 5]: 19.4 ± 0.072 kcal/mol
- ΔcdgSm°(θ) (Equation (2)) standard molar entropy of sublimation [2, 5]: 184.1 ± 1.0 J·K^−1·mol^−1
- p (Equation (1)) vapor pressure [2, 6]: 6.98 Pa
- ΔcdgGm°(θ) standard molar Gibbs energy of sublimation [2, 6]: 5.856 ± 0.0024 kcal/mol
- ΔcdgHm°(θ) standard molar enthalpy of sublimation [2, 6]: 19.4 ± 0.048 kcal/mol
- p (Equation (1)) vapor pressure [2, 7]: 87.6 Pa
- ΔcdgGm°(θ) standard molar Gibbs energy of sublimation [2, 7]: 4.685 ± 0.0072 kcal/mol
- ΔcdgHm°(θ) standard molar enthalpy of sublimation [2, 7]: 19.2 ± 0.096 kcal/mol
- p (Equation (1)) vapor pressure [2, 8]: 5.81 Pa
- ΔcdgGm°(θ) standard molar Gibbs energy of vaporization [2, 9]: 5.779 ± 0.019 kcal/mol
- ΔcdgHm°(θ) standard molar enthalpy of vaporization [2, 9]: 15 ± 0.263 kcal/mol
- ΔcdgSm°(θ) (Equation (2)) standard molar entropy of vaporization [2, 9]: 129.2 ± 3.7 J·K^−1·mol^−1
- p (Equation (1)) vapor pressure [2, 10]: 87.6 Pa
- ΔcdgGm°(θ) standard molar Gibbs energy of vaporization [2, 10]: 4.685 ± 0.0072 kcal/mol
- ΔcdgHm°(θ) standard molar enthalpy of vaporization [2, 10]: 14.3 ± 0.096 kcal/mol
- p (Equation (1)) vapor pressure [2, 11]: 282 Pa
- ΔcdgGm°(θ) standard molar Gibbs energy of vaporization [2, 11]: 4.132 ± 0.0024 kcal/mol
- ΔcdgHm°(θ) standard molar enthalpy of vaporization [2, 11]: 14 ± 0.024 kcal/mol
Structure (SMILES): O=Cc1cccc(Cl)c1Cl [2,3-Dichlorobenzaldehyde]

Structure (SMILES): O=Cc1ccc(Cl)cc1Cl [2,4-Dichlorobenzaldehyde]
- Gibbs energy of hydration ΔhydrGm° [1]: -3.94 kcal/mol
- log10(KHpc/kPa·m^3·mol^−1) Henry's law volatility constant [1]: −2.50
- KHpc×10^3 Henry's law volatility constant [1]: 3.16 kPa·m^3·mol^−1
- triple point pressure ptp ([2]; Ttp = 343.90 K): 2.01 × 10^2 Pa
- p (Equation (1)) vapor pressure [2, 4]: 2.64 Pa
- ΔcdgGm°(θ) standard molar Gibbs energy of sublimation [2, 5]: 6.245 ± 0.0024 kcal/mol
- ΔcdgHm°(θ) standard molar enthalpy of sublimation [2, 5]: 19.5 ± 0.048 kcal/mol
- ΔcdgSm°(θ) (Equation (2)) standard molar entropy of sublimation [2, 5]: 185.7 ± 0.7 J·K^−1·mol^−1
- p (Equation (1)) vapor pressure [2, 12]: 13.5 Pa
- ΔcdgGm°(θ) standard molar Gibbs energy of sublimation [2, 12]: 5.557 ± 0.0024 kcal/mol
- ΔcdgHm°(θ) standard molar enthalpy of sublimation [2, 12]: 19.4 ± 0.024 kcal/mol
- p (Equation (1)) vapor pressure [2, 13]: 201 Pa
- ΔcdgGm°(θ) standard molar Gibbs energy of sublimation [2, 13]: 4.242 ± 0.0048 kcal/mol
- ΔcdgHm°(θ) standard molar enthalpy of sublimation [2, 13]: 19.1 ± 0.12 kcal/mol
- p (Equation (1)) vapor pressure [2, 8]: 7.95 Pa
- ΔcdgGm°(θ) standard molar Gibbs energy of vaporization [2, 9]: 5.593 ± 0.012 kcal/mol
- ΔcdgHm°(θ) standard molar enthalpy of vaporization [2, 9]: 14.8 ± 0.17 kcal/mol
- ΔcdgSm°(θ) (Equation (2)) standard molar entropy of vaporization [2, 9]: 129.1 ± 2.4 J·K^−1·mol^−1
- p (Equation (1)) vapor pressure [2, 14]: 201 Pa
- ΔcdgGm°(θ) standard molar Gibbs energy of vaporization [2, 14]: 4.242 ± 0.0048 kcal/mol
- ΔcdgHm°(θ) standard molar enthalpy of vaporization [2, 14]: 14 ± 0.024 kcal/mol
- p (Equation (1)) vapor pressure [2, 15]: 289 Pa
- ΔcdgGm°(θ) standard molar Gibbs energy of vaporization [2, 15]: 4.068 ± 0.0024 kcal/mol
- ΔcdgHm°(θ) standard molar enthalpy of vaporization [2, 15]: 13.9 ± 0.024 kcal/mol

- Gibbs energy of hydration ΔhydrGm° [1]: -4.73 kcal/mol
- log10(KHpc/kPa·m^3·mol^−1) Henry's law volatility constant [1]: −3.07
- KHpc×10^3 Henry's law volatility constant [1]: 0.851 kPa·m^3·mol^−1
- triple point pressure ptp ([2]; Ttp = 342.99 K): 85.7 Pa
- p (Equation (1)) vapor pressure [2, 4]: 0.95 Pa
- ΔcdgGm°(θ) standard molar Gibbs energy of sublimation [2, 5]: 6.85 ± 0.0024 kcal/mol
- ΔcdgHm°(θ) standard molar enthalpy of sublimation [2, 5]: 20.5 ± 0.096 kcal/mol
- ΔcdgSm°(θ) (Equation (2)) standard molar entropy of sublimation [2, 5]: 192.0 ± 1.3 J·K^−1·mol^−1
- p (Equation (1)) vapor pressure [2, 16]: 6.35 Pa
- ΔcdgGm°(θ) standard molar Gibbs energy of sublimation [2, 16]: 6.059 ± 0.0024 kcal/mol
- ΔcdgHm°(θ) standard molar enthalpy of sublimation [2, 16]: 20.4 ± 0.024 kcal/mol
- p (Equation (1)) vapor pressure [2, 17]: 85.7 Pa
- ΔcdgGm°(θ) standard molar Gibbs energy of sublimation [2, 17]: 4.814 ± 0.0048 kcal/mol
- ΔcdgHm°(θ) standard molar enthalpy of sublimation [2, 17]: 20.2 ± 0.17 kcal/mol
- p (Equation (1)) vapor pressure [2, 8]: 2.84 Pa
- ΔcdgGm°(θ) standard molar Gibbs energy of vaporization [2, 9]: 6.202 ± 0.0239 kcal/mol
- ΔcdgHm°(θ) standard molar enthalpy of vaporization [2, 9]: 15.8 ± 0.287 kcal/mol
- ΔcdgSm°(θ) (Equation (2)) standard molar entropy of vaporization [2, 9]: 135.0 ± 4.0 J·K^−1·mol^−1
- p (Equation (1)) vapor pressure [2, 18]: 85.7 Pa
- ΔcdgGm°(θ) standard molar Gibbs energy of vaporization [2, 18]: 4.814 ± 0.0048 kcal/mol
- ΔcdgHm°(θ) standard molar enthalpy of vaporization [2, 18]: 15 ± 0.072 kcal/mol
- p (Equation (1)) vapor pressure [2, 19]: 225 Pa
- ΔcdgGm°(θ) standard molar Gibbs energy of vaporization [2, 19]: 4.348 ± 0.0024 kcal/mol
- ΔcdgHm°(θ) standard molar enthalpy of vaporization [2, 19]: 14.7 ± 0.024 kcal/mol
Structure (SMILES): O=Cc1c(Cl)cccc1Cl [2,6-Dichlorobenzaldehyde]

- Gibbs energy of hydration ΔhydrGm° [1]: -4.49 kcal/mol
- log10(KHpc/kPa·m^3·mol^−1) Henry's law volatility constant [1]: −2.90
- KHpc×10^3 Henry's law volatility constant [1]: 1.26 kPa·m^3·mol^−1
- triple point pressure ptp ([2]; Ttp = 330.02 K): 99.1 Pa
- p (Equation (1)) vapor pressure [2, 4]: 4.59 Pa
- ΔcdgGm°(θ) standard molar Gibbs energy of sublimation [2, 5]: 5.918 ± 0.0024 kcal/mol
- ΔcdgHm°(θ) standard molar enthalpy of sublimation [2, 5]: 19 ± 0.048 kcal/mol
- ΔcdgSm°(θ) (Equation (2)) standard molar entropy of sublimation [2, 5]: 183.3 ± 0.7 J·K^−1·mol^−1
- p (Equation (1)) vapor pressure [2, 20]: 8.40 Pa
- ΔcdgGm°(θ) standard molar Gibbs energy of sublimation [2, 20]: 5.667 ± 0.0024 kcal/mol
- ΔcdgHm°(θ) standard molar enthalpy of sublimation [2, 20]: 18.9 ± 0.048 kcal/mol
- p (Equation (1)) vapor pressure [2, 21]: 99.1 Pa
- ΔcdgGm°(θ) standard molar Gibbs energy of sublimation [2, 21]: 4.536 ± 0.0072 kcal/mol
- ΔcdgHm°(θ) standard molar enthalpy of sublimation [2, 21]: 18.7 ± 0.17 kcal/mol
- p (Equation (1)) vapor pressure [2, 8]: 9.57 Pa
- ΔcdgGm°(θ) standard molar Gibbs energy of vaporization [2, 9]: 5.483 ± 0.012 kcal/mol
- ΔcdgHm°(θ) standard molar enthalpy of vaporization [2, 9]: 14.6 ± 0.17 kcal/mol
- ΔcdgSm°(θ) (Equation (2)) standard molar entropy of vaporization [2, 9]: 128.3 ± 2.4 J·K^−1·mol^−1
- p (Equation (1)) vapor pressure [2, 22]: 99.1 Pa
- ΔcdgGm°(θ) standard molar Gibbs energy of vaporization [2, 22]: 4.536 ± 0.0072 kcal/mol
- ΔcdgHm°(θ) standard molar enthalpy of vaporization [2, 22]: 14 ± 0.072 kcal/mol
- p (Equation (1)) vapor pressure [2, 23]: 254 Pa
- ΔcdgGm°(θ) standard molar Gibbs energy of vaporization [2, 23]: 4.101 ± 0.0024 kcal/mol
- ΔcdgHm°(θ) standard molar enthalpy of vaporization [2, 23]: 13.7 ± 0.024 kcal/mol
Structure (SMILES): O=Cc1ccc(Br)cc1 [4-Bromobenzaldehyde]
- water solubility, estimated value ([3]; ALI method): 7060 µM (≈ 1310 µg/mL)
- water solubility, estimated value ([3]; ESOL method): 1680 µM (≈ 311 µg/mL)
- water solubility, estimated value ([3]; SILICO-IT method): 634 µM (≈ 117 µg/mL)
